Data taken from ChEMBL document CHEMBL1129178, “Thiol inhibitors of endothelin-converting enzyme” (Bioorg Med Chem Lett, 1996).

target: T1, Endothelin-converting enzyme 1 (Rattus norvegicus) (UniProt P42893); assay: In vitro inhibition of cleavage of [3H]propionyl-big ET-1(19-35) by Endothelin-converting enzyme 1 from rat lungs at 10000 nM
T1 sequence (whole entry): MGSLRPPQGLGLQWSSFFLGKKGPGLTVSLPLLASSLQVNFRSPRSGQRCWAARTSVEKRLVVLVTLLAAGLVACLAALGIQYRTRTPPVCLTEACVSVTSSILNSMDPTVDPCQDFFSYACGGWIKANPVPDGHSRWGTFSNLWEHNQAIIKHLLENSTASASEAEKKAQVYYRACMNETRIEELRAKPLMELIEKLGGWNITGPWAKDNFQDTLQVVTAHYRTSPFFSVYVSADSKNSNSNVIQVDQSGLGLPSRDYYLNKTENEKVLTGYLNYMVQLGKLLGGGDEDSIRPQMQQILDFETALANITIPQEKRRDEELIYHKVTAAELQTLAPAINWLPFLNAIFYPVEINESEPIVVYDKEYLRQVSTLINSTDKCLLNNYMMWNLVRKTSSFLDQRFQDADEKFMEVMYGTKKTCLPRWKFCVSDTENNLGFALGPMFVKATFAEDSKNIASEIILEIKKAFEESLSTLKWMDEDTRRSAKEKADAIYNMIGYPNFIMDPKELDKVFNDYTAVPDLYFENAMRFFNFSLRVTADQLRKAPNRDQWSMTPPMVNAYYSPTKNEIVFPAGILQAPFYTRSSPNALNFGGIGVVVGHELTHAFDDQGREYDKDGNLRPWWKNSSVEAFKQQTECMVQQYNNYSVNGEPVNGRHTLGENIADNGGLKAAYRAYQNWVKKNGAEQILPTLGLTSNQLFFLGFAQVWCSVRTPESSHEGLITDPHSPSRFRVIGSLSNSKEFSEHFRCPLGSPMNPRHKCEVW

**Q.** `O=C(O)[C@H](Cc1c[nH]c2ccccc12)NC(=O)[C@@H](S)Cc1ccccc1` was tested. Which inhibition did it give?
**A.** The inhibition was 65%.

target: T2, Endothelin-converting enzyme 1 (Rattus norvegicus, UniProt P42893); assay: In vitro inhibition of Endothelin-converting enzyme 1 from rat lungs.
T2 sequence (P42893 whole entry): T1 sequence (whole entry)

**Q.** For `O=C(N[C@@H](Cc1c[nH]c2ccccc12)C(=O)O)C(CS)Cc1ccc(OCc2ccccc2)cc1` (stereo partly specified), which IC50 is on record?
**A.** The IC50 was 800 nM.

**Q.** Which IC50 does the source give for `O=C(N[C@@H](Cc1c[nH]c2ccccc12)C(=O)O)C(CS)Cc1cc2c(cc1Cl)OCO2` (stereo partly specified) here?
**A.** The IC50 was 400 nM.

**Q.** For `COC(=O)[C@H](Cc1c[nH]c2ccccc12)NC(=O)[C@@H](CS)Cc1ccccc1`, which IC50 is on record?
**A.** The IC50 was 1800 nM.

**Q.** For `O=C(N[C@@H](Cc1ccc(OCc2ccccc2)cc1)C(=O)O)[C@@H](CS)Cc1ccccc1`, which IC50 is on record?
**A.** The IC50 was 700 nM.

**Q.** Which IC50 does the source give for `COC(=O)[C@H](Cc1c[nH]c2ccccc12)NC(=O)[C@H](S)Cc1ccccc1` here?
**A.** The IC50 was 2200 nM.

**Q.** With `O=C(N[C@@H](Cc1ccc(-c2cccs2)cc1)C(=O)O)C(CS)Cc1cccc(Br)c1` (stereo partly specified) as the compound, how does the IC50 read?
**A.** The IC50 was 80 nM.

**Q.** Which IC50 does the source give for `O=C(N[C@@H](Cc1ccc(-c2cccs2)cc1)C(=O)O)[C@@H](CS)Cc1ccccc1` here?
**A.** Its IC50 is 55 nM.

**Q.** `O=C(N[C@@H](Cc1c[nH]c2ccccc12)C(=O)O)C(CS)Cc1ccc(-c2ccccc2)cc1` (stereo partly specified) was tested. Which IC50 did it give?
**A.** The IC50 was 40 nM.

**Q.** For `O=C(N[C@@H](Cc1c[nH]c2ccccc12)C(=O)O)[C@H](CS)Cc1ccccc1`, which IC50 is on record?
**A.** Its IC50 is 500 nM.

**Q.** For `O=C(N[C@@H](Cc1ccc(-c2ccc3ccccc3c2)cc1)C(=O)O)[C@@H](CS)Cc1ccccc1`, which IC50 is on record?
**A.** The IC50 was 300 nM.

**Q.** Which IC50 does the source give for `O=C(N[C@@H](Cc1c[nH]c2ccccc12)C(=O)O)[C@H](S)Cc1ccccc1` here?
**A.** The IC50 was 400 nM.

**Q.** How did the IC50 turn out when `O=C(N[C@@H](Cc1c[nH]c2ccccc12)C(=O)O)C(CS)Cc1cccc(-c2ccccc2)c1` (stereo partly specified) was run?
**A.** Its IC50 is 40 nM.

**Q.** `O=C(N[C@@H](Cc1ccc(O)cc1)C(=O)O)[C@@H](CS)Cc1ccccc1` was tested. Which IC50 did it give?
**A.** The IC50 was 2800 nM.

**Q.** `O=C(N[C@@H](Cc1ccccc1)C(=O)O)[C@@H](CS)Cc1ccccc1` was tested. Which IC50 did it give?
**A.** The IC50 was 1200 nM.

**Q.** For `COc1ccc(-c2ccc(C[C@H](NC(=O)[C@@H](CS)Cc3ccccc3)C(=O)O)cc2)cc1`, which IC50 is on record?
**A.** The IC50 was 800 nM.

**Q.** Which IC50 does the source give for `O=C(N[C@@H](Cc1c[nH]c2ccccc12)C(=O)O)[C@@H](CS)Cc1ccccc1` here?
**A.** The IC50 was 180 nM.

**Q.** For `O=C(N[C@@H](Cc1ccc(-c2ccccc2)cc1)C(=O)O)[C@@H](CS)Cc1ccccc1`, which IC50 is on record?
**A.** The IC50 was 150 nM.

**Q.** How did the IC50 turn out when `COC(=O)[C@H](Cc1c[nH]c2ccccc12)NC(=O)[C@H](CS)Cc1ccccc1` was run?
**A.** The IC50 was 3500 nM.

**Q.** For `O=C(N[C@@H](Cc1c[nH]c2ccccc12)C(=O)O)C(CS)Cc1ccc(Br)cc1` (stereo partly specified), which IC50 is on record?
**A.** The IC50 was 25 nM.

**Q.** How did the IC50 turn out when `O=C(N[C@@H](Cc1c[nH]c2ccccc12)C(=O)O)C(CS)Cc1ccccc1` (stereo partly specified) was run?
**A.** Its IC50 is 340 nM.
